Like-named read-outs stand apart in the source and are kept apart here.
Experiments:
[1] = tested on: α-isomaltosyl-transferring enzyme; test: Influence of metal ions on the activity of α-isomaltosyl-transferring enzyme (Strain C9); format: biochemical, Bacillus globisporus C9; details: for influence on the enzyme activity, in words: 1 mM; for Relative activity (%): 1 mM of each metal-ion
Experimental: The α-isomaltosyl-transferring enzyme was assayed for enzymatic activity by dissolving panose in 100 mM acetate buffer (pH 6.0) to give a concentration of 2% (w/v) for a substrate solution, adding a 0.5 ml of an enzyme solution to 0.5 ml of the substrate solution, enzymatically reacting the mixture solution at 35° C. for 30 min, suspending the reaction mixture by boiling for 10 min, and quantifying glucose, among the cyclotetrasaccharide and glucose formed in the reaction mixture, by the glucose oxidase method. One unit activity of the α-isomaltosyl-transferring enzyme is defined as the enzyme amount that forms one micromole of glucose per minute under the above enzymatic reaction conditions. Throughout the specification, the enzymatic activity of the α-isomaltosyl-transferring enzyme means the unit(s) assayed as above. […]

[2] = tested on: α-isomaltosylglucosaccharide-forming enzyme; test: Influence of metal ions on the activity of α-isomaltosylglucosaccharide-forming enzyme (Strain A19); format: biochemical, Arthrobacter globiformis A19; details: for influence on the enzyme activity, in words: 1 mM; for Relative activity (%): 1 mM of each metal-ion
[3] = tested on: α-isomaltosylglucosaccharide-forming enzyme; test: Influence of metal ions on the activity of α-isomaltosylglucosaccharide-forming enzyme (Strain C9); format: biochemical, Bacillus globisporus C9; details: for Relative activity (%): 1 mM of each metal-ion
Experimental: (§1) One unit activity of the α-isomaltosylglucosaccharide-forming enzyme is defined as the enzyme amount that forms one micromole of maltose per minute under the above enzymatic reaction conditions. Throughout the specification, the enzymatic activity of the α-isomaltosylglucosaccharide-forming enzyme means the unit(s) assayed as above.
(§2) The influence of metal ions on the activity of α-isomaltosylglucosaccharide-forming enzyme was examined in the presence of 1 mM of each metal-ion according to the assay for the enzyme activity.

[4] = tested on: α-isomaltosylglucosaccharide-forming enzyme; test: Influence of metal ions on the activity of α-isomaltosylglucosaccharide-forming enzyme (Strain C11); format: biochemical, Bacillus globisporus C11; details: for influence on the enzyme activity, in words: 1 mM; for Relative activity (%): 1 mM of each metal-ion
Experimental: as §1
The influence of metal ions on the activity of α-isomaltosylglucosaccharide forming enzyme was examined in the presence of 1 mM of each metal-ion according to the assay for the enzyme activity.

[5] = tested on: α-isomaltosylglucosaccharide-forming enzyme; test: Influence of metal ions on the activity of α-isomaltosylglucosaccharide-forming enzyme (Strain N75); format: biochemical, Bacillus globisporus N75; details: for influence on the enzyme activity, in words: 1 mM; for Relative activity (%): 1 mM of each metal-ion
Experimental: as §1, §2

[6] = tested on: α-isomaltosyl-transferring enzyme; format: biochemical, Bacillus globisporus C11
Experimental: (§3) The α-isomaltosyl-transferring enzyme was assayed for enzymatic activity by dissolving panose in 100 mM acetate buffer (pH 6.0) to give a concentration of 2% (w/v) for a substrate solution, adding a 0.5 ml of an enzyme solution to 0.5 ml of the substrate solution, enzymatically reacting the mixture solution at 35° C. for 30 min, suspending the reaction mixture by boiling for 10 min, and quantifying glucose, among the cyclotetrasaccharide and glucose formed in the reaction mixture, by the glucose oxidase method. One unit activity of the α-isomaltosyl-transferring enzyme is defined as the enzyme amount that forms one micromole of glucose per minute under the above enzymatic reaction conditions. Throughout the specification, the enzymatic activity of the α-isomaltosyl-transferring enzyme means the unit(s) assayed as above.
(§4) The influence of metal ions on the activity of α-isomaltosyl-transferring enzyme was examined in the presence of 1 mM of each metal-ion according to the assay for the enzyme activity.

[7] = tested on: α-isomaltosyl-transferring enzyme; test: Influence of metal ions on the activity of α-isomaltosyl-transferring enzyme (Strain S1); format: biochemical, Arthrobacter ramosus S1; details: for Relative activity (%): 1 mM of each metal-ion
Experimental: as §3, §4

[8] = tested on: α-isomaltosyl-transferring enzyme; test: Influence of metal ions on the activity of α-isomaltosyl-transferring enzyme (Strain N75); format: biochemical, Bacillus globisporus N75; details: for influence on the enzyme activity, in words: 1 mM; for Relative activity (%): 1 mM of each metal-ion
Experimental: as §3, §4

Structure (SMILES)	influence on the enzyme activity, in words [1]	Relative activity (%) [1] [%]	influence on the enzyme activity, in words [2]	Relative activity (%) [2] [%]	Relative activity (%) [3] [%]	influence on the enzyme activity, in words [4]	Relative activity (%) [4] [%]	influence on the enzyme activity, in words [5]	Relative activity (%) [5] [%]	Relative activity (%) [6] [%]	influence on the enzyme activity, in words [6]	Relative activity (%) [7] [%]	influence on the enzyme activity, in words [8]	Relative activity (%) [8] [%]	influence on the enzyme activity, in words ([3]; 1 mM)	influence on the enzyme activity, in words ([6]; 1 mM)	Relative activity (%) ([6]; 1 mM of each metal-ion)	influence on the enzyme activity, in words ([7]; 1 mM)
O=C(O)CN(CCN(CC(=O)O)CC(=O)O)CC(=O)O [EDTA, ethylenediaminetetraacetic acid, reference compound]	not inhibited	104	greatly inhibited	2	20	greatly inhibited	24	greatly inhibited	35	98	not inhibited	91	not inhibited	92				
[Hg+2] [Hg^2+]	greatly inhibited	1	greatly inhibited	0	4	greatly inhibited	4	greatly inhibited	1			0.1	greatly inhibited	0.5	greatly inhibited	greatly inhibited	2	greatly inhibited
[Pb+2] [Pb^2+]		89		43	103		101		86			85		69			74	
[Sr+2] [Sr^2+]		101		102	80	also inhibited	83		85			101		91			93	
[Zn+2] [Zn^2+]		88		56	92		91		82			78		75			83	

— US7811797B2, “α-isomaltosylglucosaccharide-forming enzyme, process and uses of the same” (Kabushiki Kaisha Hayashibara Seibutsu Kagaku Kenkyujo, priority 2000, dated 2010)
